Experiment [1] concerns the target T1, γ-secretase in the HeLa membrane (Homo sapiens, UniProt P05067). The experiment can be described thus: AlphaLISA γ-secretase assay with biotinylated Sb4 (APP sequence) substrate. The format is biochemical. The arrangement: fused on or other part: Biotin label on Sb4. The note with it: from lower IC50 for Aβ42 than Aβ40. An excerpt:
(§1) Referring now to FIG. 1, and without wishing to be bound by theory, γ-secretase cleaves within the transmembrane domain of the amyloid precursor protein (APPTM) to release Aβ, which aggregates to form neurotoxic oligomers and fibrils. […] Formula III decreased the production of Aβ40 and Aβ42 by γ-secretase in a dose dependent manner (FIG. 2).

Experiment [2] concerns the target T1, γ-secretase in the HeLa membrane. The description is as above. In kind it is biochemical. The arrangement: other: γ-secretase in HeLa membrane, Sb4 substrate; fused on or other part: Biotin label on Sb4. The note with it: γ-secretase in HeLa membrane, Sb4 substrate.
From the text: as §1

Like-named read-outs stand apart in the source and are kept apart here.

T1 sequence (P05067 whole entry, the tested form may be a part): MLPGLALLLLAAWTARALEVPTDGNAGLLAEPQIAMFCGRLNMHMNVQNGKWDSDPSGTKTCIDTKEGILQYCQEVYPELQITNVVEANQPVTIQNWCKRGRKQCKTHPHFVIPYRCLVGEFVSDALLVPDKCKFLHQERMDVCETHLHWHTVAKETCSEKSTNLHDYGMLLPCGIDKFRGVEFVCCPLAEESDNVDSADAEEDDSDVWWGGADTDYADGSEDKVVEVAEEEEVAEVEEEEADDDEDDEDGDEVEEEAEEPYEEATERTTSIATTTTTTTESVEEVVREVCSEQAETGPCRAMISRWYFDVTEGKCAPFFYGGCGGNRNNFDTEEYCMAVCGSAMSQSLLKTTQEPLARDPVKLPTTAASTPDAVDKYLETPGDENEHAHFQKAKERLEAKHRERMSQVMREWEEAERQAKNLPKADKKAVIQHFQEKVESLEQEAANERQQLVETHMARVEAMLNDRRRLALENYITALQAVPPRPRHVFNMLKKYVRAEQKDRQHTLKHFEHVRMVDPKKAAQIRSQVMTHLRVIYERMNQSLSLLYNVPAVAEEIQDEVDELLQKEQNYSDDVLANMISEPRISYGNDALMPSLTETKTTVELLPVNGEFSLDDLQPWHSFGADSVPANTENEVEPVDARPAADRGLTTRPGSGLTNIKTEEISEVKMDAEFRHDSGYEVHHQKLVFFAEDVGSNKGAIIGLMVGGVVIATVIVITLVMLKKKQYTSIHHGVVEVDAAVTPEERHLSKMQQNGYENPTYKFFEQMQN

For the compound `O=C(C=COc1ccc2ccccc2c1)c1ccc(F)cc1` [Formula III], the “selectivity in inhibiting Aβ42 production over Aβ40” value in experiment [1] is on record as “selectivity in inhibiting Aβ42 production over Aβ40”. In addition, the figures for the IC50 in experiment [2] (read-out: IC50 for the inhibition of Aβ40 production) and in experiment [2] (read-out: IC50 for the inhibition of Aβ42 production) were 3900 nM and 1900 nM, respectively.
